From ChEMBL document CHEMBL1139991, “[1,3]Diazaheterofused isoindolol derivatives displaying anxiolytic-like effects on mice” (2007)

Assays:
Mus musculus [1] = test: Anxiolytic effect in Albino ICR mouse assessed as time spent on open arms of elevated plus-maze test at 15 mg/ kg, ip; assay type: functional; conditions: route intraperitoneal
Mus musculus [2] = test: Anxiolytic effect in Albino ICR mouse assessed as number of entries in open arms of elevated plus-maze test at 15 mg/kg, ip; assay type: functional; conditions: route intraperitoneal

| Structure (SMILES) | Activity (Mus musculus [1]) [%] | Activity (Mus musculus [2]) [%] |
| --- | --- | --- |
| CSc1ccc(CC2(O)c3ccccc3C3=NCCN32)cc1 (configuration not stated) | 47.8 | 36.3 |
| CSc1ccc(CC2(O)c3ccccc3C3=NCCCN32)cc1 (configuration not stated) | 73.8 | 66 |
| C[S+]([O-])c1ccc(CC2(O)c3ccccc3C3=NCCCN32)cc1 (configuration not stated) | 16.3 | 27.6 |
| C[S+]([O-])c1ccc(CC2(O)c3ccccc3C3=NCCN32)cc1 (configuration not stated) | 44 | 25.3 |
| CS(=O)(=O)c1ccc(CC2(O)c3ccccc3C3=NCCN32)cc1 (configuration not stated) | 44 | 27.3 |
| COc1ccc(CC2(O)c3ccccc3C3=NCCCCN32)cc1 (configuration not stated) | -9 | -24.4 |
| OC1(Cc2ccc(F)cc2)c2ccccc2C2=NCCN21 (configuration not stated) | 22.9 | 5.5 |
| OC1(Cc2ccc(F)cc2)c2ccccc2C2=NCCCN21 (configuration not stated) | 44.7 | 24.7 |
| O=[N+]([O-])c1ccc(CC2(O)c3ccccc3C3=NCCCN32)cc1 (configuration not stated) | 59 | 44.2 |
| OC1(Cc2ccc(Cl)cc2)c2ccccc2C2=NCCN21 (configuration not stated) | 62.6 | 41.9 |
| OC1(Cc2ccc(Cl)cc2)c2ccccc2C2=NCCCN21 (configuration not stated) | 62.6 | 47.4 |
| OC1(Cc2ccc(F)cc2)c2ccccc2C2=NCCCCN21 (configuration not stated) | 33.5 | 36.3 |
| OC1(Cc2ccc(Cl)cc2)c2ccccc2C2=NCCCCN21 (configuration not stated) | 42.7 | 41 |
| CS(=O)(=O)c1ccc(CC2(O)c3ccccc3C3=NCCCN32)cc1 (configuration not stated) | 13.9 | -7.3 |
| O=[N+]([O-])c1ccc(CC2(O)c3ccccc3C3=NCCN32)cc1 (configuration not stated) | 36.1 | 33.1 |
| COc1cc(CC2(O)c3ccccc3C3=NCCCN32)cc(OC)c1OC (configuration not stated) | 44.2 | 46.8 |
| OC1(Cc2ccc3c(c2)OCO3)c2ccccc2C2=NCCCN21 (configuration not stated) | 48.7 | 45.9 |
| COc1ccc(CC2(O)c3ccccc3C3=NCCN32)cc1 (configuration not stated) | 48.9 | 34.6 |
| OC1(Cc2ccc3c(c2)OCO3)c2ccccc2C2=NCCN21 (configuration not stated) | 51.3 | 44.8 |
| COc1ccc(CC2(O)c3ccccc3C3=NCCCN32)cc1 (configuration not stated) | 51.8 | 60.2 |
| COc1cc(CC2(O)c3ccccc3C3=NCCN32)cc(OC)c1OC (configuration not stated) | -7.9 | -16 |
